According to US7671045B2, “17-phosphorous steroid derivatives useful as progesterone receptor modulators” (Janssen Pharmaceutica N.V., priority 2006, dated 2010):
pIC50: −log10 of the molar value. Read-outs that look alike come from different tables or passages of the source.

Assays:
[1] = tested on: T47D human breast cancer cells; test: Alkaline phosphatase assay in human breast cancer cell line T47D; assay type: cell-based; settings: for IC50: T47D, 24 h, read-out: T47D IC50 (nM); for pIC50: T47D cells, alkaline phosphatase readout, 24 h with test compound, read-out: T47D IC50
Description: Alkaline Phosphatase Assay in Human Breast Cancer Cell Line T47D
T47D human breast cancer cells were grown in RPMI medium without phenol red (Invitrogen) containing 10% (v/v) heat-inactivated fetal bovine serum (FBS; Hyclone), 1% (v/v) penicillin-streptomycin (Invitrogen), 1% (w/v) glutamine (Invitrogen), and […] insulin (Sigma). Incubation conditions were 37° C. in a humidified 5% (v/v) carbon dioxide environment.
The cells were plated in 96-well tissue culture plates at 10,000 cells per well in assay medium [RPMI medium without phenol red (Invitrogen) containing 5% (v/v) charcoal-treated FBS (Hyclone) and 1% (v/v) penicillin-streptomycin (Invitrogen)]. Two days later, the medium was decanted and test compound or control were added at a final concentration of 0.1% (v/v) dimethyl sulfoxide in fresh assay medium. Twenty-four hours later, an alkaline phosphatase assay was performed using a SEAP kit (BD Biosciences Clontech, Palo Alto, Calif.). Briefly, the medium was decanted and the cells were fixed for 30 minutes at room temperature with 5% (v/v) formalin (Sigma). The cells were washed once with room temperature Hank's buffered saline solution (Invitrogen). Equal volumes (0.05 mL) of 1× Dilution Buffer, Assay Buffer and 1:20 substrate/enhancer mixture were then added. After 1 hour incubation at room temperature in the dark, the lysate was transferred to a white 96-well plate (Dynex) and luminescence was read using a LuminoSkan Ascent (Thermo Electron, Woburn, Mass.).

[2] = tested on: A549 Human lung carcinoma cells; test: Transient transfection and Steady Glo luciferase assay in A549 cells with dexamethasone challenge; assay type: cell-based; settings: for IC50: A549, 24 h, read-out: A549 IC50 (nM); for pIC50: transfected A549 cells, luciferase readout, challenged with dexamethasone (glucocorticoid agonist), 24 h, read-out: A549 IC50
Description: Transient Transfection and Steady Glo Luciferase Assay
A549 Human lung carcinoma cells were grown in F-12K Nutrient Mixture containing 10% (v/v) fetal bovine serum (FBS; Invitrogen), 2 mM glutamine and 0.15% […] (Invitrogen)
A549 cells were split 1 to 3 in 175 cm tissue culture flask. The cells were incubated at 37° C. in CO2 incubator until the cells were 95% confluent (typically 24-30 hours).
The following solutions were prepared in sterile tubes: (a) Solution A: 1.5 μg/ml of DNA in 8.5 ml OPTI-MEM I Reduced Serum Medium. (GIBCO cat# 31985) and (b) Solution B: 6 μl/ml of DMRIE-C Reagent into […] OPTI-MEM I. The two solutions were combined and mixed gently, then incubated at room temperature for 40 minutes.
The A549 cells prepared above were washed with […] of OPTI-MEM I. The medium was removed and 17 ml of the lipid-DNA complex solution was overlayed onto cells. The cells ere then incubated for 16 h at 37° C. in CO2 incubator. The DNA-containing medium was removed and 30 ml of growth medium was added. (5% Charcoal treated FBS) After 5-6 h, the cells were seeded in a 96 well plate and the cells incubated overnight at 37° C. in CO2 incubator.
To each well was then added 5 μl of test compounds and the cells incubated at 37° C. for 10 min. 5 μL of dexamathasone (CAS [50-02-2]), a glucocorticoid agonist, solution was then added to each well for challenger and the cells incubated at 37° C. in CO2 incubator for 24 h. 100 μl of Luc-assay buffer was then added into each cell well and the cells incubated for 30 min at room temperature. A 150 μL sample from each well was then transferred into a DYNEX Microlitel plate and read on Top-counter.

| Structure (SMILES) | IC50 [1] [nM] | IC50 [2] [nM] | pIC50 [1] | pIC50 [2] |
| --- | --- | --- | --- | --- |
| CCOP(=O)(OCC)c1ccc([C@H]2C[C@@]3(C)[C@@H](CC[C@@]3(O)C#Cc3ccccc3)[C@@H]3CCC4=CC(=O)CCC4=C32)cc1 [Compound 25] | 38.2 | 83.8 |  |  |
| C=CC[C@]1(O)CC[C@H]2[C@@H]3CCC4=CC(=O)CCC4=C3[C@@H](c3ccc(P(C)(C)=O)cc3)C[C@@]21C [Compound 9] |  |  | 6.69 | < 6.00 |
| C=C1CCO[C@]12CC[C@H]1[C@@H]3CCC4=CC(=O)CCC4=C3[C@@H](c3ccc(P(=O)(c4ccc(Cl)cc4)c4ccc(Cl)cc4)cc3)C[C@@]12C [Compound 39, 19,24-Dinorchola-4,9,20-trien-3-one, 17,23-epoxy-11-[4-[Bis-(4-chloro-phenyl)-phosphinoyl]-phenyl]-, (11β,17α)-(9Cl)] |  |  | 7.70 | 6.84 |
| C=C1CCO[C@]12CC[C@H]1[C@@H]3CCC4=CC(=O)CCC4=C3[C@@H](c3ccc(P(=O)(OC)OC)cc3)C[C@@]12C [Compound 16] | 8.3 | 230 |  |  |
| CN(C)c1ccc([C@H]2C[C@@]3(C)[C@@H](CC[C@@]3(O)C#CP(=O)(c3ccccc3)c3ccccc3)[C@@H]3CCC4=CC(=O)CCC4=C32)cc1 [Compound 103] |  |  | 8.80 | 7.38 |
| C[C@]12C[C@H](c3ccc(P(=O)(c4ccccc4)c4ccccc4)cc3)C3=C4CCC(=O)C=C4CC[C@H]3[C@@H]1CC[C@@]2(O)C#Cc1ccccc1 [Compound 30] |  |  | 6.56 | 7.03 |
| CCOP(C)(=O)c1ccc([C@H]2C[C@]3(C)C(=O)CC[C@H]3[C@@H]3CCC4=CC(=O)CCC4=C32)cc1 (stereo partly drawn) [Compound 21] |  | > 3000 |  |  |
| C=C1CCO[C@]12CC[C@H]1[C@@H]3CCC4=CC(=O)CCC4=C3[C@@H](c3ccc(P(C)(=O)O)cc3)C[C@@]12C [Compound 22, 19,24-Dinorchola-4,9,20-trien-3-one, 1723-epoxy-11-[4-(hydroxy-methyl-phosphinoyl)phenyl]-(11β,17α)-(9Cl)] |  |  | < 6.00 | < 5.52 |
| CCOP(=O)(OCC)c1ccc([C@H]2C[C@]3(C)C(=O)CC[C@H]3[C@@H]3CCC4=CC(=O)CCC4=C32)cc1 [Compound 1] | > 1000 | 254 |  |  |
| C=C1CCO[C@]12CC[C@H]1[C@@H]3CCC4=CC(=O)CCC4=C3[C@@H](c3ccc(P(=O)(OCC(F)(F)F)OCC(F)(F)F)cc3)C[C@@]12C [Compound 38, 19,24-Dinorchola-4,9,20-trien-3-one, 17,23-epoxy-11-[4-[Bis-(2,2,2-trifluoro-ethoxy)-phosphoryl]-phenyl]-, (11β,17α)-(9Cl)] |  |  | 7.53 | 6.85 |
| CCOP(=O)(C#C[C@]1(O)CC[C@H]2[C@@H]3CCC4=CC(=O)CCC4=C3[C@@H](c3ccc(N(C)C)cc3)C[C@@]21C)OCC [Compound 101] | 1.3 | > 100 |  |  |
| C[C@]12C[C@H](c3ccc(P(=O)(OCC(F)(F)F)OCC(F)(F)F)cc3)C3=C4CCC(=O)C=C4CC[C@H]3[C@@H]1CCC2=O [Compound 32] | > 1000 | 217 |  |  |
| CC#C[C@]1(O)CC[C@H]2[C@@H]3CCC4=CC(=O)CCC4=C3[C@@H](c3ccc(P(=O)(c4ccccc4)c4ccccc4)cc3)C[C@@]21C [Compound 27] |  |  | 6.42 | 7.78 |
| CCOP(=O)(C#C[C@]1(O)CC[C@H]2[C@@H]3CCC4=CC(=O)CCC4=C3[C@@H](c3ccc(OC)cc3)C[C@@]21C)OCC [Compound 108] | 6.9 | 72.2 |  |  |
| C=CC[C@]1(O)CC[C@H]2[C@@H]3CCC4=CC(=O)CCC4=C3[C@@H](c3ccc(P(=O)(OCC)OCC)cc3)C[C@@]21C [Compound 13] | 170 | 30.2 |  |  |
| C=C1CCO[C@]12CC[C@H]1[C@@H]3CCC4=CC(=O)CCC4=C3[C@@H](c3ccc(P(=O)(OCC)OCC)cc3)C[C@@]12C [Compound 3] | 12 | 238 |  |  |
| COP(=O)(OC)c1ccc([C@H]2C[C@@]3(C)[C@@H](CC[C@@]3(O)C#Cc3ccccc3)[C@@H]3CCC4=CC(=O)CCC4=C32)cc1 [Compound 31] | 7.47 | 130 |  |  |
| C[C@]12C[C@H](c3ccc(P(C)(C)=O)cc3)C3=C4CCC(=O)C=C4CC[C@H]3[C@@H]1CCC2=O [Compound 2] |  |  | < 6.00 | < 6.15 |

| Structure (SMILES) | IC50 [1] [nM] | IC50 [2] [nM] | pIC50 [1] | pIC50 [2] |
| --- | --- | --- | --- | --- |
| C=C1CCO[C@]12CC[C@H]1[C@@H]3CCC4=CC(=O)CCC4=C3[C@@H](c3ccc(P(=O)(Oc4ccccc4)Oc4ccccc4)cc3)C[C@@]12C [Compound 37] |  |  | 8.48 | 7.46 |
| C[C@]12C[C@H](c3ccc(P(=O)(OCc4ccccc4)OCc4ccccc4)cc3)C3=C4CCC(=O)C=C4CC[C@H]3[C@@H]1CCC2=O [Compound 35] |  |  | 6.01 | 6.02 |
| COP(=O)(OC)c1ccc([C@H]2C[C@]3(C)C(=O)CC[C@H]3[C@@H]3CCC4=CC(=O)CCC4=C32)cc1 [Compound 15] | 8.8 | > 3000 |  |  |
| CCOP(=O)(C#C[C@]1(O)CC[C@H]2[C@@H]3CCC4=CC(=O)CCC4=C3[C@@H](c3ccc(SC)cc3)C[C@@]21C)OCC [Compound 107] | 4.75 | 454 |  |  |
| CC#C[C@]1(O)CC[C@H]2[C@@H]3CCC4=CC(=O)CCC4=C3[C@@H](c3ccc(P(=O)(OCC)OCC)cc3)C[C@@]21C [Compound 26] | 125 | 41.5 |  |  |
| C[C@]12C[C@H](c3ccc(P(C)(C)=O)cc3)C3=C4CCC(=O)C=C4CC[C@H]3[C@@H]1CC[C@@]2(O)CC#N [Compound 6] |  |  | < 6.00 | < 5.52 |
| CN(C)c1ccc([C@H]2C[C@@]3(C)[C@@H](CC[C@@]3(O)C#CP(=O)(N3CCOC3=O)N3OCCC3=O)[C@@H]3CCC4=CC(=O)CCC4=C32)cc1 (stereo partly drawn) [Compound 104] |  |  | 8.14 | 7.19 |
| CN(C)c1ccc([C@H]2C[C@@]3(C)[C@@H](CC[C@@]3(O)C#CP(C)(C)=O)[C@@H]3CCC4=CC(=O)CCC4=C32)cc1 [Compound 102] |  |  | 8.14 | 7.15 |
| C=C(C)[C@]1(O)CC[C@H]2[C@@H]3CCC4=CC(=O)CCC4=C3[C@@H](c3ccc(P(C)(C)=O)cc3)C[C@@]21C [Compound 10] |  |  | 7.74 | < 5.52 |
| C=C1CCO[C@]12CC[C@H]1[C@@H]3CCC4=CC(=O)CCC4=C3[C@@H](c3ccc(P(C)(C)=O)cc3)C[C@@]12C [Compound 4] |  |  | 8.52 | 7.18 |
| C=C1CCO[C@]12CC[C@H]1[C@@H]3CCC4=CC(=O)CCC4=C3[C@@H](c3ccc(P4(=O)OCC(C)(C)CO4)cc3)C[C@@]12C [Compound 23, 19,24-Dinorchola-4,9,20-trien-3-one, 17,23-epoxy-11-[4-(5,5-Dimethyl-2-oxo-2λ^5-[1,3,2]dioxaphosphinan-2-yl)-phenyl]-, (11β,17α)-(9Cl)] |  |  | 7.54 | 7.19 |
| C=C1CCO[C@]12CC[C@H]1[C@@H]3CCC4=CC(=O)CCC4=C3[C@@H](c3ccc(P(=O)(O)OC)cc3)C[C@@]12C [Compound 17] | > 1000 | > 3000 |  |  |
| C/C=C/C[C@]1(O)CC[C@H]2[C@@H]3CCC4=CC(=O)CCC4=C3[C@@H](c3ccc(P(=O)(OCC)OCC)cc3)C[C@@]21C [Compound 29] | 160 | 225 |  |  |
| C[C@]12C[C@H](c3ccc(P(C)(C)=O)cc3)C3=C4CCC(=O)C=C4CC[C@H]3[C@@H]1CC[C@@]2(O)C(F)(F)C(F)(F)F [Compound 7] |  |  | 8.08 | 6.21 |
| COP(=S)(C#C[C@]1(O)CC[C@H]2[C@@H]3CCC4=CC(=O)CCC4=C3[C@@H](c3ccc(N(C)C)cc3)C[C@@]21C)OC [Compound 105] | 1.44 | 55.8 |  |  |
| C=CC[C@]1(O)CC[C@H]2[C@@H]3CCC4=CC(=O)CCC4=C3[C@@H](c3ccc(P(=O)(c4ccccc4)c4ccccc4)cc3)C[C@@]21C [Compound 24] |  |  | 6.12 | 7.32 |
| CN(C)c1ccc([C@H]2C[C@@]3(C)[C@@H](CC[C@@]3(O)C#CP(=O)(N(C)C)N(C)C)[C@@H]3CCC4=CC(=O)CCC4=C32)cc1 [Compound 106] |  |  | 8.12 | 6.92 |
